In patent US8846739B2, “TGR5 agonists” (Exelixis Patent Company LLC, priority 2009, dated 2014):

How the values were obtained:
human TGR5 (h-TGR5) = biological target: T1, human TGR5 (h-TGR5) (Homo sapiens, UniProt Q8TDU6); assay: TGR5/CRE-Luciferase Assay; format: cell-based; conditions: HEK 293 hTGR5/CRE-Luc cells, 6 hours incubation, read-out: CRE-Luc Agonist (EC50)
T1 sequence (Q8TDU6 1-330): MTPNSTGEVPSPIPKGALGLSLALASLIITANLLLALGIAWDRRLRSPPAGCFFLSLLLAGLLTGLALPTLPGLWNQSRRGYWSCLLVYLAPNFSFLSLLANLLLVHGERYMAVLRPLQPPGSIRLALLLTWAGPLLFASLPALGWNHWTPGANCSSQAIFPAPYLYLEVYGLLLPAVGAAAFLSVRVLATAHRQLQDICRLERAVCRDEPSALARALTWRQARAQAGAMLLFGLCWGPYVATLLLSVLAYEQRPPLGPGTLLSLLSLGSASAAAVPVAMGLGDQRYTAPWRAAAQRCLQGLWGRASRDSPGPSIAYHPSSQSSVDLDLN
Outline: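 HEK 293 CRE-Luciferase cells stably expressing the receptor, plated in DMEM 18-20 h before assay, then exposed to serially diluted compounds (DMEM with 5% DMSO) for 6 h. Luciferase read-out after lysis; EC50 from dose-response.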

h-TGR5 = biological target: T2, h-TGR5 (Homo sapiens, UniProt Q8TDU6); assay: TGR5 cAMP Assay using Cisbio cAMP Dynamic 2 htrf assay kit; format: cell-based; conditions: hTGR5CRE-luc HEK 293 cells
T2 sequence (Q8TDU6 1-330): T1 sequence (Q8TDU6 1-330)

Compound	EC50 (human TGR5 (h-TGR5))	EC50 (h-TGR5)
COc1cc(-n2c(C(C)(C)c3ccc(Cl)c(Cl)c3)cnc2SCc2c(F)cc(C(=O)NCC[N+](C)(C)C)cc2Cl)ccc1F [Example 2n, 2-[({3-chloro-4-[({5-[1-(3,4-dichlorophenyl)-1-methylethyl]-1-[4-fluoro-3-(methyloxy)phenyl]-1H-imidazol-2-yl}thio)methyl]-5-fluorophenyl}carbonyl)amino]-N,N,N-trimethylethanaminium]	< 100 nM	< 100 nM
COc1cc(-n2c(C(C)(C)c3ccc(Cl)c(Cl)c3)cnc2SCc2c(F)cc(C(=O)N[C@H]3CCC[N+](C)(C)C3)cc2Cl)ccc1F [Example 2o, (3S)-3-[({3-chloro-4-[({5-[1-(3,4-dichlorophenyl)-1-methylethyl]-1-[4-fluoro-3-(methyloxy)phenyl]-1H-imidazol-2-yl}thio)methyl]-5-fluorophenyl}carbonyl)amino]-1,1-dimethylpiperidinium]	< 100 nM	< 100 nM
COc1cc(C(C)(C)c2cnc(SCc3c(F)cc(C(=O)N[C@H]4CCC[N+](C)(C)C4)cc3Cl)n2-c2ccc(F)cc2)ccc1F [Example 2p, (3S)-3-({[3-chloro-5-fluoro-4-({[5-{1-[4-fluoro-3-(methyloxy)phenyl]-1-methylethyl}-1-(4-fluorophenyl)-1H-imidazol-2-yl]thio}methyl)phenyl]carbonyl}amino)-1,1-dimethylpiperidinium]	< 100 nM	< 100 nM
COc1cc(C(C)(C)c2cnc(SCc3c(F)cc(C(=O)N[C@H]4CC[N+](C)(C)C4)cc3Cl)n2-c2ccc(F)cc2)ccc1F [Example 2q, (3S)-3-({[3-chloro-5-fluoro-4-({[5-{1-[4-fluoro-3-(methyloxy)phenyl]-1-methylethyl}-1-(4-fluorophenyl)-1H-imidazol-2-yl]thio}methyl)phenyl]carbonyl}amino)-1,1-dimethylpyrrolidinium]	< 100 nM	< 100 nM
COc1cc(-n2c(C(C)(C)c3ccc(Cl)c(Cl)c3)cnc2SCc2c(F)cc(C(=O)N[C@H]3CC[N+](C)(C)C3)cc2Cl)ccc1F [Example 2r, (3S)-3-[({3-chloro-4-[({5-[1-(3,4-dichlorophenyl)-1-methylethyl]-1-[4-fluoro-3-(methyloxy)phenyl]-1H-imidazol-2-yl}thio)methyl]-5-fluorophenyl}carbonyl)amino]-1,1-dimethylpyrrolidinium]	< 100 nM	< 100 nM
COc1cc(C(C)(C)c2cnc(SCc3c(F)cc(C(=O)NC4CC[N+](C)(CC(=O)O)CC4)cc3Cl)n2-c2ccc(F)cc2)ccc1Cl (centres unmarked) [Example 3, 1-(Carboxymethyl)-4-(3-chloro-4-((5-(2-(4-chloro-3-methoxyphenyl)propan-2-yl)-1-(4-fluorophenyl)-1H-imidazol-2-ylthio)methyl)-5-fluorobenzamido)-1-methyl-piperidinium 2,2,2-trifluoroacetate]	< 100 nM	< 100 nM
COc1cc(C(C)(C)c2cnc(SCc3c(F)cc(C(=O)NCC[N+](C)(C)CCCS(=O)(=O)[O-])cc3Cl)n2-c2ccc(F)cc2)ccc1Cl [Example 4, 3-((2-(3-Chloro-4-((5-(2-(4-chloro-3-methoxyphenyl)propan-2-yl)-1-(4-fluorophenyl)-1H-imidazol-2-ylthio)methyl)-5-fluorobenzamido)ethyl)dimethylammonio)-propane-1-sulfonate]	< 100 nM	< 100 nM
COc1cc(C(C)(C)c2cnc(SCc3c(F)cc(NC(=O)NCC[N+](C)(C)C)cc3Cl)n2-c2ccc(F)cc2)ccc1Cl [Example 5]	< 100 nM	< 100 nM
COc1cc(C(C)(C)c2cnc(SCc3c(F)cc(S(=O)(=O)NCCC[N+](C)(C)C)cc3F)n2-c2ccc(F)cc2)ccc1Cl [Example 6, 3-(4-((5-(2-(4-Chloro-3-methoxyphenyl)propan-2-yl)—(4-fluorophenyl)-1H-imidazol-2-ylthio)methyl)-3,5-difluorophenylsulfonamido)-N,N,N-trimethylpropan-1-aminium 2,2,2-trifluoroacetate]	< 100 nM	< 100 nM
COc1cc(C(C)(C)c2cnc(SCc3c(F)cc(S(=O)(=O)NCCC[N+](C)(C)C)cc3Cl)n2-c2ccc(F)cc2)ccc1F [Example 6a, 3-({[3-chloro-5-fluoro-4-({[5-{1-[4-fluoro-3-(methyloxy)phenyl]-1-methylethyl}-1-(4-fluorophenyl)-1H-imidazol-2-yl]thio}methyl)phenyl]sulfonyl}amino)-N,N,N-trimethylpropan-1-aminium]	< 100 nM	< 100 nM
COc1cc(-n2c(C(C)(C)c3ccc(S(N)(=O)=O)c(Cl)c3)cnc2SCc2c(F)cc(S(=O)(=O)NCCC[N+](C)(C)C)cc2F)ccc1F [Example 6b, 3-{[(4-{[(5-{1-[4-(aminosulfonyl)-3-chlorophenyl]-1-methylethyl}-1-[4-fluoro-3-(methyloxy)phenyl]-1H-imidazol-2-yl)thio]methyl}-3,5-difluorophenyl)sulfonyl]amino}-N,N,N-trimethylpropan-1-aminium]	< 100 nM	< 100 nM
CC[N+](CC)(CC)CCCNS(=O)(=O)c1cc(F)c(CSc2ncc(C(C)(C)c3ccc(Cl)c(OC)c3)n2-c2ccc(F)cc2)c(Cl)c1 [Example 6c, 3-({[3-chloro-4-({[5-{1-[4-chloro-3-(methyloxy)phenyl]-1-methylethyl}-1-(4-fluorophenyl)-1H-imidazol-2-yl]thio}methyl)-5-fluorophenyl]sulfonyl}amino)-N,N,N-triethylpropan-1-aminium]	< 100 nM	< 100 nM
COc1cc(C(C)(C)c2nnc(SCc3c(F)cc(S(=O)(=O)NCCC[N+](C)(C)C)cc3F)n2-c2ccc(F)cc2)ccc1Cl [Example 6d, 3-({[4-({[5-{1-[4-chloro-3-(methyloxy)phenyl]-1-methylethyl}-4-(4-fluorophenyl)-4H-1,2,4-triazol-3-yl]thio}methyl)-3,5-difluorophenyl]sulfonyl}amino)-N,N,N-trimethylpropan-1-aminium]	< 100 nM	< 100 nM
COc1cc(-n2c(C(C)(C)c3ccc(Cl)c(Cl)c3)cnc2SCc2c(F)cc(S(=O)(=O)NCCC[N+](C)(C)C)cc2F)ccc1F [Example 6e, 3-[({4-[({5-[1-(3,4-dichlorophenyl)-1-methylethyl]-1-[4-fluoro-3-(methyloxy)phenyl]-1H-imidazol-2-yl}thio)methyl]-3,5-difluorophenyl}sulfonyl)amino]-N,N,N-trimethylpropan-1-aminium]	< 100 nM	< 100 nM
COc1cc(C(C)(C)c2cnc(SCc3c(F)cc(S(=O)(=O)NCCC[N+](C)(C)C)cc3F)n2-c2ccc(F)cc2)ccc1F [Example 6f, 3-({[3,5-difluoro-4-({[5-{1-[4-fluoro-3-(methyloxy)phenyl]-1-methylethyl}-1-(4-fluorophenyl)-1H-imidazol-2-yl]thio}methyl)phenyl]sulfonyl}amino)-N,N,N-trimethylpropan-1-aminium]	< 100 nM	< 100 nM
COC(=O)c1cc(-n2c(C(C)(C)c3ccc(Cl)c(OC)c3)cnc2SCc2c(F)cc(S(=O)(=O)NCCC[N+](C)(C)C)cc2F)ccc1F [Example 6g, 3-{[(4-{[(5-{1-[4-chloro-3-(methyloxy)phenyl]-1-methylethyl}-1-{4-fluoro-3-[(methyloxy)carbonyl]phenyl}-1H-imidazol-2-yl)thio]methyl}-3,5-difluorophenyl)sulfonyl]amino}-N,N,N-trimethylpropan-1-aminium]	100 to 1000 nM	100 to 1000 nM
